# Tests used:
# [1] = Acidic pH stability of dyed fabrics (colour fastness, ΔE); type: physicochemical; details: pH 5 with HCl
# Procedure: (§1) In order to assess the stability and colour fastness of violacein and violacein derivatives dyed onto fabrics, dyed fabrics were subjected to a number of conditions. Fabrics were dyed according to Example 18 and colour coordinates and colour change before and after exposure to a given condition were determined as described in Example 18. To measure temperature stability, fabrics were incubated in an oven set to 80° c. for 4 h. To measure stability under acid and alkaline conditions, fabrics were fully submerged in water solutions set to pH 8 with NaOH and pH 5 with HCl and incubated at room temperature for 30 minutes. Fabrics were then incubated at 37° c. for 4 h. To measure stability during laundering, fabrics were washed at 30° c. under the “mix” setting of a Siemens IQ300 washing machine, then dried in a Siemens IQ300 dryer until dry. To measure artificial light stability, fabrics were placed under an LED lamp at room temperature for 16 h. To measure UV light stability, fabrics were placed under a UV lamp at room temperature for 1 h.
# [2] = Artificial light stability of dyed fabrics (colour fastness, ΔE); type: physicochemical; details: for ΔE: before vs after LED lamp, room temperature, 16 h
# Procedure: as §1
# [3] = UV stability of dyed fabrics (colour fastness, ΔE); type: physicochemical; details: for ΔE: before vs after UV lamp, room temperature, 1 h
# Procedure: as §1
# [4] = Free radical scavenging ability of dyed Nylon 6,6 fabric (DPPH); type: biochemical; details: dyed Nylon 6,6 fabric strip
# Procedure: Violacein is reported as being a potent antioxidant able to effectively scavenge free radicals. […] To test this, 1.5×1.5 cm dyed Nylon 6,6 fabric strips were incubated in the dark at room temperature for 1 h in 5 mL of a 5×10^−5 M DPPH free radical solution in 100% ethanol. Undyed Nylon 6,6 fabric strips were included as a negative control. After 1 h absorbance was measured at 517 nm and % scavenging ability calculated as above.
# [5] = Acrylic, after test (LED lamp, room temperature, 16 h)
# [6] = Bleached cotton, after test (LED lamp, room temperature, 16 h)
# [7] = Diacetate, after test (LED lamp, room temperature, 16 h)
# [8] = Nylon 6,6, after test (LED lamp, room temperature, 16 h)
# [9] = Polyester, after test (LED lamp, room temperature, 16 h)
# [10] = Wool, after test (LED lamp, room temperature, 16 h)
# [11] = Acrylic, after test (UV lamp, room temperature, 1 h)
# [12] = Bleached cotton, after test (UV lamp, room temperature, 1 h)
# [13] = Diacetate, after test (UV lamp, room temperature, 1 h)
# [14] = Nylon 6,6, after test (UV lamp, room temperature, 1 h)
# [15] = Polyester, after test (UV lamp, room temperature, 1 h)
# [16] = Wool, after test (UV lamp, room temperature, 1 h)
compound,measurement,setting,value
O=C1N=C(c2c[nH]c3ccc(O)cc23)C=C1c1c[nH]c2ccccc12 [proviolacein],L,"[1]; Acrylic, After test",58.2
same,a,"[1]; Acrylic, After test",−1.53
same,b,"[1]; Acrylic, After test",3.12
same,L,"[1]; Acrylic, Before test",59.15
same,a,"[1]; Acrylic, Before test",−0.61
same,b,"[1]; Acrylic, Before test",1.45
same,ΔE,"[1]; Acrylic, before and after the stability test",2.13
same,L,"[1]; Bleached cotton, After test",65.48
same,a,"[1]; Bleached cotton, After test",1.87
same,b,"[1]; Bleached cotton, After test",2.2
same,L,"[1]; Bleached cotton, Before test",62.48
same,a,"[1]; Bleached cotton, Before test",1.73
same,b,"[1]; Bleached cotton, Before test",2.27
same,ΔE,"[1]; Bleached cotton, before and after the stability test",3.00
same,L,"[1]; Diacetate, After test",59.6
same,a,"[1]; Diacetate, After test",4.35
same,b,"[1]; Diacetate, After test",7.87
same,L,"[1]; Diacetate, Before test",60.94
same,a,"[1]; Diacetate, Before test",4.79
same,b,"[1]; Diacetate, Before test",4.9
same,ΔE,"[1]; Diacetate, before and after the stability test",3.29
same,L,"[1]; Nylon 6,6, After test",52.72
same,a,"[1]; Nylon 6,6, After test",−1.67
same,b,"[1]; Nylon 6,6, After test",−3.52
same,L,"[1]; Nylon 6,6, Before test",50.84
same,a,"[1]; Nylon 6,6, Before test",0.04
same,b,"[1]; Nylon 6,6, Before test",−4.68
same,ΔE,"[1]; Nylon 6,6, before and after the stability test",2.79
same,L,"[1]; Polyester, After test",64.14
same,a,"[1]; Polyester, After test",−1.28
same,b,"[1]; Polyester, After test",2.92
same,L,"[1]; Polyester, Before test",64.55
same,a,"[1]; Polyester, Before test",−1.43
same,b,"[1]; Polyester, Before test",1.3
same,ΔE,"[1]; Polyester, before and after the stability test",1.68
same,L,"[1]; Wool, After test",66.56
same,a,"[1]; Wool, After test",−0.93
same,b,"[1]; Wool, After test",5.56
same,L,"[1]; Wool, Before test",65.49
same,a,"[1]; Wool, Before test",−1.55
same,b,"[1]; Wool, Before test",5.81
same,ΔE,"[1]; Wool, before and after the stability test",1.26
same,L,[2]; [5],58.47
same,a,[2]; [5],−0.05
same,b,[2]; [5],2.76
same,L,"[2]; Acrylic, before test",56.17
same,a,"[2]; Acrylic, before test",−0.68
same,b,"[2]; Acrylic, before test",3.21
same,ΔE,[2]; Acrylic,2.43
same,L,[2]; [6],62.69
same,a,[2]; [6],3.04
same,b,[2]; [6],3.55
same,L,"[2]; Bleached cotton, before test",58.83
same,a,"[2]; Bleached cotton, before test",−0.52
same,b,"[2]; Bleached cotton, before test",4.04
same,ΔE,[2]; Bleached cotton,5.27
same,L,[2]; [7],63.43
same,a,[2]; [7],4.56
same,b,[2]; [7],7.02
same,L,"[2]; Diacetate, before test",56.45
same,a,"[2]; Diacetate, before test",3.46
same,b,"[2]; Diacetate, before test",5.75
same,ΔE,[2]; Diacetate,7.18
same,L,[2]; [8],51.07
same,a,[2]; [8],−0.68
same,b,[2]; [8],−2.49
same,L,"[2]; Nylon 6,6, before test",47.03
same,a,"[2]; Nylon 6,6, before test",−1.98
same,b,"[2]; Nylon 6,6, before test",−2.52
same,ΔE,"[2]; Nylon 6,6",4.24
same,L,[2]; [9],65.01
same,a,[2]; [9],−0.35
same,b,[2]; [9],1.74
same,L,"[2]; Polyester, before test",59.49
same,a,"[2]; Polyester, before test",−1.38
same,b,"[2]; Polyester, before test",2.13
same,ΔE,[2]; Polyester,5.63
same,L,[2]; [10],67.51
same,a,[2]; [10],−0.15
same,b,[2]; [10],6.46
same,L,"[2]; Wool, before test",65.25
same,a,"[2]; Wool, before test",−0.55
same,b,"[2]; Wool, before test",5.71
same,ΔE,[2]; Wool,2.41
same,L,[3]; [11],57.07
same,a,[3]; [11],0.02
same,b,[3]; [11],1.94
same,L,"[3]; Acrylic, before test",57.31
same,a,"[3]; Acrylic, before test",−0.99
same,b,"[3]; Acrylic, before test",2.73
same,ΔE,[3]; Acrylic,1.30
same,L,[3]; [12],64.92
same,a,[3]; [12],1.27
same,b,[3]; [12],3.29
same,L,"[3]; Bleached cotton, before test",64.65
same,a,"[3]; Bleached cotton, before test",0.4
same,b,"[3]; Bleached cotton, before test",2.43
same,ΔE,[3]; Bleached cotton,1.25
same,L,[3]; [13],61.92
same,a,[3]; [13],3.89
same,b,[3]; [13],6.22
same,L,"[3]; Diacetate, before test",61.25
same,a,"[3]; Diacetate, before test",3.87
same,b,"[3]; Diacetate, before test",4.46
same,ΔE,[3]; Diacetate,1.88
same,L,[3]; [14],57.07
same,a,[3]; [14],0.02
same,b,[3]; [14],1.94
same,L,"[3]; Nylon 6,6, before test",57.31
same,a,"[3]; Nylon 6,6, before test",−0.99
same,b,"[3]; Nylon 6,6, before test",2.73
same,ΔE,"[3]; Nylon 6,6",1.30
same,L,[3]; [15],65.53
same,a,[3]; [15],−1.02
same,b,[3]; [15],0.99
same,L,"[3]; Polyester, before test",64.26
same,a,"[3]; Polyester, before test",−2.11
same,b,"[3]; Polyester, before test",1.21
same,ΔE,[3]; Polyester,1.69
same,L,[3]; [16],62.87
same,a,[3]; [16],−0.07
same,b,[3]; [16],5.48
same,L,"[3]; Wool, before test",62.43
same,a,"[3]; Wool, before test",−0.15
same,b,"[3]; Wool, before test",5.23
same,ΔE,[3]; Wool,0.51
same,OD517,[4]; 1 h in the dark in 5×10^−5 M DPPH in 100% ethanol,1.88
same,Scavenging ability %,"[4]; 1 h in the dark in 5×10^−5 M DPPH, vs undyed control",17.27%

# From patent publication US20260092179A1, “GENETICALLY MODIFIED HOST CELLS PRODUCING VIOLACEIN, ANALOGUES, AND DERIVATIVES THEREOF” (OCTARINE BIO APS, priority 2022, published 2026)
